Experimental data taken from US9221763B2, “Process for preparing biphenyl imidazole compounds” (Theravance Biopharma R&D IP, LLC, priority 2009, dated 2015).

Tests used:
[1] = Differential scanning calorimetry (DSC) thermal analysis; type: physicochemical; conditions: crystalline solid; linear heating ramp of 10° C./min from 22° C. to 250° C.
Experimental: Differential scanning calorimetry (DSC) was performed using a TA Instruments Model Q-100 module with a Thermal Analyst controller. Data were collected and analyzed using TA Instruments Thermal Solutions software. A 2.05 mg sample of the crystalline compound of Example 1 was accurately weighed into a covered aluminum pan. After a 5 minute isothermal equilibration period at 22° C., the sample was heated using a linear heating ramp of 10° C./min from 22° C. to 250° C.
A 1.12 mg sample of the crystalline compound of Example 2 was similarly evaluated.

[2] = Thermogravimetric analysis (TGA); type: physicochemical; conditions: crystalline solid; from room temperature to 150.0° C.

Row | Compound | thermal stability: no thermal decomposition below (DSC thermograph) [1] [°C] | loss of weight (residual moisture or solvent), TGA trace [2] [%]
1 | CCOc1nc(CC)c(CNC(=O)[C@H](CC(C)C)SC(C)=O)n1Cc1ccc(-c2ccccc2C(=O)O)cc1F [Example 2, 4′-{5-[((S)-2-acetylsulfanyl-4-methylpentanoylamino)methyl]-2-ethoxy-4-ethylimidazol-1-ylmethyl}-3′-fluorobiphenyl-2-carboxylic acid] | ≥ 150.0 | –
2 | CCOc1nc(CC)c(CN)n1Cc1ccc(-c2ccccc2C(=O)OC(C)(C)C)cc1F [Example 1, 4′-(5-aminomethyl-2-ethoxy-4-ethylimidazol-1-ylmethyl)-3′-fluorobiphenyl-2-carboxylic acid t-butyl ester] | ≥ 150.0 | < 0.5
